Patent publication US20240254135A1, “POLYPHENOL COMPOUNDS” (Epirium Bio Inc., priority 2022, published 2024)

Tests used:
[1] = Pharmacokinetics: quantitative determination in mice plasma (LCMS); type: in vivo, C57BL/6 Mice; conditions: C57BL/6, mouse, 10 mg/kg PO single dose, 10% NMP vehicle; for AUC(0-t): read-out: AUC0-4 h
Protocol: C57BL/6 Mice, Age 7-9 weeks, body weight range 20-25 g were used. The mice were fasted overnight. Mice were dosed once a day for a single day at 10 mg/kg, 10 mg/kg. 6 time-points were used for whole blood. 10% NMP was used as a vehicle. 9 animals were used per treatment, with three groups of three animals each. Group 1 had time points at 15 and 60 minutes, Group 2 had time points at 30 and 120 minutes, and Group 3 had time points at 90 and 240 minutes. An Oral (PO) route was used. Plasma and brain samples were collected (brain sample collected at terminal time point). Plasma was collected through the centrifugation of whole blood at 10,000 rpm for 10 minutes at 4° C. Samples were stored at −80° C. until processing.
1.00 mg/mL in 100% MeOH PP vials (prepared at RT yellow light) at 2-8° C. were used as stock solution. 12.22-50000 ng/ml using 80% MeOH PP vials (prepared at RT yellow light) at 2-8° C. were used as working solution. 0.98-4000 ng/ml (prepared at RT yellow light) was used for the curve range. For Compounds 75b and 78a, 1.00 mg/mL of Compound 79 in 100% methanol Ria vials (Prepared at RT yellow light) was used as IS stock solution, and 60 ng/ml of Compound 79 in 80% methanol (Prepared at RT yellow light) was used as IS working solution. For Compound 76b, 1.00 mg/mL of Compound 44 in 100% methanol Ria vials (Prepared at RT yellow light) was used as IS stock solution, and 60 ng/ml of Compound 44 in 80% methanol (Prepared at RT yellow light) was used as IS working solution. A linear, 1/x2 fit type was used. The injection volume was 15 μL. Mobile Phase A was 0.1% Formic Acid in water at room temperature. Mobile Phase B was 100% methanol at room temperature. R0 wash solution was 80% methanol at room temperature. R^3 wash solution was IPA/MeOH/ACN/water (1:1:1:1) at room temperature. The column was Agilent Eclipse 50*2.1 mm 1.8 μm and the instrument was Shimadzu LC-40 UPLC and AB Sciez 6500+ with LCMS002.
For Compound 75b, using a pipette with Methanol-rinsed pipette tips, 25 μL of each sample was aliquoted (calibration curve sample, QC samples and blank matrix) to labeled 12×75-mm glass tubes. Using Methanol-rinsed pipette tips, 5.0 μL of IS of conc. 60 ng (Compound 79) was aliquoted to each standards and samples except Blank. All tubes were mixed on a multi-tube vortex for approximately 30 seconds. 50 μL of 10 mM Sodium bicarbonate were added. 1 ml of Ethyl Acetate was added. All tubes were mixed on a multi-tube vortex for approximately 5 minutes then centrifuged for 10 min at 5,000 rpm, 4° C. The sample was kept in methanol containing dry ice for a few seconds to freeze the Aqueous layer (flash freeze method). The upper organic layer was poured from the frozen tubes into the labeled 12×75-mm glass tubes then evaporated to dryness under nitrogen using Liquid Evaporator (30° C., ˜15 psi, ˜10 mins). 200 μl of reconstitution solution (0.1% Acetic acid:MeOH (60:40 v/v) were added into each tube. Samples were vortexed for 30 seconds then transferred to amber glass injection vials for injection.
For Compounds 76b and 78a, using a pipette, 25 μL of each sample were aliquoted (calibration curve sample, QC samples and blank matrix) to labeled 1.5 ml eppendorfs. Using a pipette, 5.0 μL of IS of conc. 100 ng (Cocktail IS) was aliquoted to each standards and samples except Blank. All tubes were mixed on a multi-tube vortex for approximately 30 seconds. 1 ml of tert-butyl methyl ether (TBME) was added. All tubes were mixed on a multi-tube vortex for approximately 5 minutes then centrifuged for 10 min at 10,000 rpm, 4° C. The sample was kept in methanol containing dry ice for few seconds to freeze the Aqueous layer (flash freeze method). The upper organic layer was poured from the frozen tubes into the labeled 12×75-mm rial vials then vaporated to dryness under nitrogen using Liquid Evaporator (30° C., −15 psi, 10 mins). 200 μl of reconstitution solution (10 mM Ammonium Formate: MeOH) (40:60 v/v) was added into each tube. […]

PGC-1α = experiment: In vitro PGC-1α expression in differentiated C2C12 cells (cell ELISA); type: cell-based
Protocol: Culture conditions: DMEM containing 25 mM glucose with 10% FBS supplementation; grown at 37° C. and 5% CO2.
Drugs: (+)Epicatechin, AICAR (direct activator of AMPK).
Assay Conditions: C2C12 cells were cultured in DMEM supplemented in 10% FBS up to 80% confluence. The cells were further trypsinized and seeded into a 96 well plate at a density of 5000 cells/well (well volume—100 μL) (Day 0). Following attachment, the cells were allowed to reach 80-90% confluence in the plate (typically 48 hours post seeding) and further differentiated using DMEM+2% Horse Serum (200 μL/well). The media was changed every day or at least every alternate day for 5 days to allow myoblasts to differentiate into myotubes. On day 7 (post seeding), the cells were treated with standards and test compounds for PGC-1 α assay.
PGC-1α assay: For the detection of PGC-1α, the cells were incubated with 0.5 μg/ml primary antibody (Merck, WH0010891M3) in PBS-T containing 5% BSA at 4° C. overnight. The cells were then washed three times with PBS-T for 5 minutes and incubated with 1:1000 dilution secondary antibody (Anti-rabbit IgG, HRP-linked Antibody, Cell Signaling) in PBS-T with 1% BSA for 1 hour at RT. Cells were washed three times with PBS-T for 5 minutes The cells were incubated with 100 μl TMB substrate solution for 30 minutes and the reaction was stopped with 100 μl of 2N H2SO4. […] (For plate optical density calculations, a background correction was taken at 540 nm). The final PGC-1α activation % is average of activation of 6 replicates.

[2] = Table 3, differentiated C2C12 cells, 0.001 nM, DMSO control = 100%, OD@650 nm

## Oc1cc(O)c2c(c1)OC(c1ccccc1)C(O)C2 (single isomer, unassigned) [Compound 78a, 2-phenylchromane-3,5,7-triol]
[1]
  Cmax: 49.8 ng/mL
  Tmax: 15 min
  AUC(0-t): 59.5 ng·h/mL
PGC-1α; Table 8, C2C12 cells, 5000 cells/well, 0.01 nM, DMSO = 100
  % Activity (PGC-1α expression): 128%

## Oc1ccc2c(c1)OC(c1ccc(O)c(C(F)(F)F)c1)C(O)C2 (single isomer, unassigned) [Compound 77b, 2-(4-hydroxy-3-(trifluoromethyl)phenyl)chromane-3,7-diol]
PGC-1α; Table 6, C2C12 cells, 5000 cells/well, 0.01 nM
  % Activity (PGC-1α expression): 138%
PGC-1α; Table 7, C2C12 cells, 5000 cells/well, 0.01 nM, DMSO = 100
  % Activity (PGC-1α expression): 135%

## Oc1cc(O)c2c(c1)OC(c1ccc(O)c(F)c1)C(O)C2 (single isomer, unassigned) [Compound 76b, 2-(3-fluoro-4-hydroxyphenyl)chromane-3,5,7-triol]
[1]
  Cmax: 89.3 ng/mL
  Tmax: 15 min
  AUC(0-t): 45.7 ng·h/mL
PGC-1α; Table 5, differentiated C2C12, 5000 cells/well, 0.01 nM, DMSO = 100
  % Activity (PGC-1α expression): 128%

## COc1cc(C2Oc3ccccc3CC2O)ccc1F (single isomer, unassigned) [Compound 75b, 2-(4-fluoro-3-methoxyphenyl)chroman-3-ol]
[1]
  Cmax: 138 ng/mL
  Tmax: 90 min
  AUC(0-t): 133 ng·h/mL
PGC-1α; Table 3, differentiated C2C12 cells, 0.0001 nM, DMSO control = 100%
  % Activity (PGC-1α expression): 118%
PGC-1α; [2]
  % Activity (PGC-1α expression): 125%
PGC-1α; Table 3, differentiated C2C12 cells, 0.01 nM, DMSO control = 100%
  % Activity (PGC-1α expression): 122%
PGC-1α; Table 3, differentiated C2C12 cells, 0.1 nM, DMSO control = 100%
  % Activity (PGC-1α expression): 116%
PGC-1α; Table 3, differentiated C2C12 cells, 1 nM, DMSO control = 100%
  % Activity (PGC-1α expression): 120%
PGC-1α; Table 4, differentiated C2C12 cells, 0.01 nM, OD at 5 minutes
  % Activity (PGC-1α expression): 130%

## Oc1cc(O)c2c(c1)O[C@H](c1ccc(O)c(O)c1)[C@H](O)C2 [Epicatechin, (+)Epicatechin, reference compound]
PGC-1α; [2]
  % Activity (PGC-1α expression): 119%
PGC-1α; Table 4, differentiated C2C12 cells, 0.001 nM, OD at 5 minutes
  % Activity (PGC-1α expression): 120%
PGC-1α; Table 5, differentiated C2C12, 5000 cells/well, 0.001 nM, DMSO = 100
  % Activity (PGC-1α expression): 133%
PGC-1α; Table 6, C2C12 cells, 5000 cells/well, 0.001 nM
  % Activity (PGC-1α expression): 127%
PGC-1α; Table 7, C2C12 cells, 5000 cells/well, 0.001 nM, DMSO = 100
  % Activity (PGC-1α expression): 133%
PGC-1α; Table 8, C2C12 cells, 5000 cells/well, 0.001 nM, DMSO = 100
  % Activity (PGC-1α expression): 139%
